Data: patent US8652838B2, “Platensimycin biosynthetic gene cluster of Streptomyces platensis” (Wisconsin Alumni Research Foundation, priority 2007, dated 2014)
In brackets after ≈: the same amount, converted by molar mass. Read-outs that look alike come from different tables or passages of the source.

Key:
[1] = tested on: S. platensis MA7327; assay: antibiotic sensitivity of S. platensis MA7327; assay type: cell-based, Streptomyces platensis
Excerpt: The inventors have developed an efficient genetic system for in vivo manipulation of PTM/PTN biosynthesis in S. platensis MA7327 via E. coli-S. platensis conjugation. […] Although S. platensis protoplasts can be readily prepared and regenerated with high frequency, introduction of either replicative or integrative plasmid into S. platensis via protoplast-mediated transformation has not been successful (Kieser et al., 2000).

[2] = tested on: Streptomyces avermitilis; assay: paper disk susceptibility of S. avermitilis; assay type: cell-based; conditions: 0.5-4 μg on paper disk
Excerpt: (§1) FIGS. 6A-C: Engineering of S. platensis. (FIG. 6A) Additional biosynthetic intermediates and shunt metabolites isolated from the wild-type S. platensis MA7327 strain. (FIG. 6B) Production of PTM (●) and PTN (♦) by the engineered S. platensis SB12002 (iv) and SB12001 (iii) strains with the wild-type S. platensis MA7327 as a control under two fermentation conditions for PTM (i) and PTM and PTN (ii) production. (FIG. 6C) Susceptibility of S. avermitilis and S. albus J1074 to PTM and PTN: 1, negative controls; 2, 4 μg; 3, 4 μg; 4, 2 μg; 5, 1 μg; 6, 0.5 μg of PTM or PTN on each paper disk.
(§2) Having large quantity (multiple grams) of PTM and PTN in hand from the overproducers, the inventors systematically examined the sensitivity of a battery of Streptomyces towards PTM or PTN. Remarkably, they have identified strains that are sensitive to both PTM and PTN, as exemplified by Streptomyces avermitilis, or PTN but not PTM, as exemplified by Streptomyces albus J1074 (FIG. 6C). The differential sensitivity of the organisms tested towards PTM and PTN is consistent with the established mode of action for PTM and PTN (i.e., PTM as a FabB/F inhibitor while PTN as a FabB/F and FabH dual inhibitor)—targeting two essential proteins should lead to lower resistance potential than targeting only one. […]

[3] = tested on: Streptomyces albus J1074; assay: paper disk susceptibility of S. albus J1074; assay type: cell-based; conditions: 0.5-4 μg on paper disk
Excerpt: as §1, §2

[4] = tested on: Streptococcus pneumoniae; conditions: cited from earlier work
[5] = target: T1, FabH (Staphylococcus aureus, UniProt Q8NXE2); conditions: cited from earlier work
T1 sequence (Q8NXE2 1-313): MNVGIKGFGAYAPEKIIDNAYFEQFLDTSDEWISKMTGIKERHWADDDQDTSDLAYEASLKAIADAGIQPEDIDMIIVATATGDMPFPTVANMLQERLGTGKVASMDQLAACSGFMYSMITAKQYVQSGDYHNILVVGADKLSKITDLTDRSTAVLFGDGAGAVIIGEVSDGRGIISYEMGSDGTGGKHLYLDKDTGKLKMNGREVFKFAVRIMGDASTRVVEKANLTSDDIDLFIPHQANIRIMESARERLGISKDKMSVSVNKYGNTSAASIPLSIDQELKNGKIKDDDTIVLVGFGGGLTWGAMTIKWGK

[6] = tested on: Escherichia coli; conditions: cited from earlier work
[7] = tested on: vancomycin-resistant E. faecium; conditions: cited from earlier work
[8] = animal model studies; cited from earlier work
[9] = tested on: S. aureus infection; conditions: cited from earlier work
[10] = target: T2, FabF (Staphylococcus aureus, UniProt Q5TKS0); conditions: 14C-radiolabeled malonyl-CoA, polyacrylamide gel electrophoresis; cited from earlier work
T2 sequence (Q5TKS0 1-403): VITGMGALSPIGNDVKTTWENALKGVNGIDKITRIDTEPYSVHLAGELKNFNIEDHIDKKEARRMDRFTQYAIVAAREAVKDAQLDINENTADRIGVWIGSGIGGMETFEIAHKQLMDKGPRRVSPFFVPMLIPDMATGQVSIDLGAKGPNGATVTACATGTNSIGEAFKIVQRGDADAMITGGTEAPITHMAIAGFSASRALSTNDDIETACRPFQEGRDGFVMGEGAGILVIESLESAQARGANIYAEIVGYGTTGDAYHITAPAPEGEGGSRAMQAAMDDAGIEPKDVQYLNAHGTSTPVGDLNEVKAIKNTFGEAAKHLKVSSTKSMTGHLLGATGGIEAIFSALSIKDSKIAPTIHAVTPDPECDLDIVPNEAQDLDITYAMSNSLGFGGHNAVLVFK

[11] = tested on: S. aureus; conditions: cited from earlier work
[12] = target: T2, FabF; conditions: cited from earlier work
[13] = target: T1, FabH; conditions: cited from earlier work; remark: listed apart in the source
[14] = tested on: lipid biosynthesis in S. aureus; conditions: whole-cell labeling; cited from earlier work
[15] = tested on: DNA, RNA, protein or cell wall biosynthesis; conditions: whole-cell labeling; cited from earlier work
[16] = tested on: mammalian cell; conditions: cited from earlier work

CN[C@@H]1[C@@H](O[C@H]2O[C@H](CO)[C@@H](N)[C@H](O)[C@H]2O)OC2C[C@@H](N)[C@@H](O[C@H]3[C@H](O)[C@@H](O)[C@H](N)C[C@@H]3N)OC2[C@@H]1O (stereo partly shown) [apramycin]
concentration giving complete inhibition of growth [1]: 25 µg/mL

C=C1C[C@@]23C=CC(=O)[C@@](C)(CCC(=O)Nc4c(O)ccc(C(=O)O)c4O)[C@@H]2C[C@@H]1CC3 [platencin]
sensitivity of Streptomyces avermitilis [2]: sensitive | sensitivity of Streptomyces albus J1074 [3]: sensitive | antibacterial activity compared to platensimycin ([4]; S. pneumoniae): decreased activity | FabH inhibition [5]: inhibits FabH | antibacterial activity compared to platensimycin ([6]; efflux-negative E. coli): increased antibacterial activity | antibacterial activity compared to platensimycin [7]: increased antibacterial activity | pharmacokinetics [8]: exceedingly poor pharmacokinetics | reduction of S. aureus cfu in kidney ([9]; mouse, continuous infusion 150 μg/h, over 24 h): 3 log | in vivo efficacy ([9]; mouse, in vivo): potent in vivo efficacy | observed toxicity in vivo ([9]; mouse, in vivo): without any observed toxicity

platensimycin [PTM]
clearing S. aureus infection from a mouse model ([9]; high doses): effective in clearing S. aureus infection

C[C@]12C[C@@]34C=CC(=O)[C@@](C)(CCC(=O)Nc5c(O)ccc(C(=O)O)c5O)C3[C@H](CC1C4)O2 (stereo partly shown) [PTM, platensimycin]
sensitivity of Streptomyces avermitilis [2]: sensitive | preference for FabF inhibition relative to FabH inhibition [10]: 838 fold | minimal inhibitory concentration [11]: 1 µM (≈ 0.441 µg/mL) | minimal inhibitory concentration [4]: 2.5 µM (≈ 1.1 µg/mL) | greater potency than cerulenin as inhibitor of FabF ([12]; relative to cerulenin): 200 fold | IC50 ([12]; single enzyme inhibition assays): < 50 nM | inhibition of S. aureus FabH [13]: weak inhibition | FabH inhibition [5]: does not inhibit FabH to any significant extent | IC50 inhibition of lipid biosynthesis [14]: 0.1 µg/mL | concentration without inhibition of DNA, RNA, protein or cell wall biosynthesis [15]: > 500 µg/mL | antibacterial activity ([6]; efflux-negative Escherichia coli): showed antibacterial activity | effectiveness against Gram-negative Escherichia coli ([6]; tolC dependent efflux): not very effective | antibacterial activity ([6]; wild-type E. coli): not against wild-type E. coli | mammalian cell toxicity [16]: Low | pharmacokinetics [8]: exceedingly poor pharmacokinetics | decrease of S. aureus infection ([9]; mouse, 100 μg/h intravenously with a continuous pump, over 24 hrs): 10^4-10^5 fold

CC[C@H]1OC(=O)[C@H](C)[C@@H](O[C@H]2C[C@@](C)(OC)[C@@H](O)[C@H](C)O2)[C@H](C)[C@@H](O[C@@H]2O[C@H](C)C[C@H](N(C)C)[C@H]2O)[C@](C)(O)C[C@@H](C)C(=O)[C@H](C)[C@@H](O)[C@]1(C)O [erythromycin]
concentration giving complete inhibition of growth [1]: 10 µg/mL

C=C(NC(=O)C(=C)NC(=O)c1csc(C2=N[C@@H]3c4csc(n4)[C@H]4NC(=O)c5csc(n5)[C@H]([C@](C)(O)[C@@H](C)O)NC(=O)[C@H]5CSC(=N5)/C(=C/C)NC(=O)[C@H]([C@@H](C)O)NC(=O)c5csc(n5)[C@]3(CC2)NC(=O)[C@H](C)NC(=O)C(=C)NC(=O)[C@H](C)NC(=O)[C@H]([C@@H](C)CC)N[C@@H]2C=Cc3c([C@H](C)O)cc(nc3[C@H]2O)C(=O)O[C@@H]4C)n1)C(N)=O [thiostrepton]
concentration giving complete inhibition of growth [1]: 10 µg/mL

NC[C@H]1O[C@H](O[C@H]2[C@H](O)[C@@H](O[C@H]3O[C@H](CO)[C@@H](O)[C@H](N)[C@H]3O)[C@H](N)C[C@@H]2N)[C@H](O)[C@@H](O)[C@@H]1O [kanamycin]
concentration giving complete inhibition of growth [1]: 25 µg/mL
